Drawing on patent publication US11584756B2, “Heterocyclic compounds as BET inhibitors” (NUVATION BIO INC., priority 2019, dated 2023), this text covers IC50 for 14 compounds.

One assay addresses BRD4-1 (Homo sapiens (Human), UniProt O60885). Nature of the assay: Bromodomain and Extraterminal Domain (BET) binding assay, BRD4-1. Particulars: histone H4 peptide (1-21) K5/8/12/16Ac-biotin ligand; 20 nM protein, 20 nM ligand. How it is done: (§1) The bromodomain binding assays were performed by Reaction Biology Corp., Malvern, Pa., USA (www.reactionbiology.com). The BET binding assays were conducted in 384 well microplates in assay buffer (50 mM HEPES-HCl, pH 7.5, 100 mM NaCl, 1 mg/ml BSA, 0.05% CHAPS, and 0.5% DMSO) with compounds added as DMSO stocks at a single concentration or with 10-point dose response titrations. BET protein or assay buffer were delivered to the appropriate wells of the microplate. Test compound was then delivered by acoustic technology via a Labcyte Echo550 liquid handler. The microplate was centrifuged for 5 min and pre-incubated for 30 min at RT with gentle shaking. The ligand (histone H4 peptide (1-21) K5/8/12/16Ac-biotin) was delivered and the microplate was again centrifuged for 5 min and allowed to incubate for 30 min at RT with gentle shaking. Donor beads were then added in the absence of light and the microplate was centrifuged and gently shaken. After 5 min, acceptor beads were added in the absence of light and the microplate was centrifuged and gently shaken in the dark for 60 min. The microplate was read using a Perkin Elmer EnSpire Alpha plate reader (λ Ex/λ Em=680/520-620 nm). Percent inhibition was calculated relative to positive and negative controls on a per plate basis. For titration experiments, IC50 values were determined by fitting the percent inhibition versus compound concentration.

The target of the next assay is BRD4-2 (Homo sapiens (Human), UniProt O60885). The assay can be described thus: Bromodomain and Extraterminal Domain (BET) binding assay, BRD4-2. Particulars: histone H4 peptide (1-21) K5/8/12/16Ac-biotin ligand; 130 nM protein, 70 nM ligand. How it is done:
as §1

In assay [1] the test system is MV-4-11 human acute myeloid leukemia cell line. The assay can be described thus: Cell viability assay in MV-4-11 cells (Cell Titer-Glo). The class given is cell-based. To be noted: MV4-11, 72 hrs incubation. How it is done: The effects of test compounds were studied in a cell viability assay in the MV-4-11 human acute myeloid leukemia cell line. The cells were harvested during the logarithmic growth period and counted. Cells were seeded at a count of 15000 cells per well/100 μl. After seeding, cells were incubated at 37° C. 5% CO2 for 1 hr. Cells were treated with test compounds at 8 concentrations within a desired concentration range (e.g. 5 nM-10 μM) for generation of dose response curves by preparing serial dilutions of the test compound in DMSO which were further diluted with culture medium and then added to each well. The plate was further incubated for another 72 hrs in a humidified incubator at 37° C. and 5% CO2. The assay was terminated by addition of Cell Titer-Glo reagent (Promega, Madison, Wis.) at ¼ the volume of total medium per well. Contents were mixed, the plate was incubated for 10 min at room temperature and luminescence was measured. Cell viability data were plotted using GraphPad Prism (GraphPad Software, Inc., San Diego, Calif.). In addition, a nonlinear regression model with a sigmoidal dose response and variable slope within GraphPad Prism was used to calculate the IC50 value of individual test compounds.

Assay [2] relates to IEC-6 rat intestinal epithelial cell line. The assay can be described thus: Cell viability assay in IEC-6 cells (resazurin), potential toxicity to non-cancerous cells. The class given is cell-based. How it is done:
The effects of test compounds were also studied in the IEC-6 rat intestinal epithelial cell line to assess potential toxicity to non-cancerous cells. The cells were harvested during the logarithmic growth period and counted. In Protocol A, cells were seeded at a count of 3000 cells per well/100 μl in a 96-well plate. After seeding, cells were incubated at 37° C. 5% CO2 for 24 hr. Cells were treated with test compounds at 8 concentrations within a desired concentration range (e.g. 5 nM-10 μM) for generation of dose response curves by preparing serial dilutions of the test compound in DMSO which were further diluted with culture medium and then added to each well. The plate was further incubated for another 96 hrs in humidified incubator at 37° C. and 5% CO2. The assay was terminated by addition of resazurin (#R7017, Sigma). The plate was incubated for 4 hr at 37° C. 5% CO2 and fluorescence was measured using excitation and emission wavelengths of 535 and 590 nm, respectively. Cell viability data were plotted using GraphPad Prism (GraphPad Software, Inc., San Diego, Calif.). In addition, a nonlinear regression model with a sigmoidal dose response and variable slope within GraphPad Prism was used to calculate the IC50 value of individual test compounds. Protocol B was the same as Protocol A except that cells were seeded at a count of 4000 cells per well/100 μl in a 96-well plate, and the incubation with test compound was for 48 hrs instead of 96 hrs.

Setting [3] is: Protocol A: 3000 cells per well, 96 hrs incubation with test compound, read-out: Protocol A IC50 (μM), cell viability in IEC-6 cells.
Where [4] appears, read: Protocol B: 4000 cells per well, 48 hrs incubation with test compound, read-out: Protocol B IC50 (μM), cell viability in IEC-6 cells.

Where two headings read alike, the source gives them in different places. A value given as a limit tells only on which side of the number the result lay.

As for `CCNC(=O)c1cc2c(-c3cc(C(C)(C)O)ccc3Oc3ccc(F)cc3F)cn(C)c(=O)c2s1` [Compound 3, 4-(2-(2,4-difluorophenoxy)-5-(2-hydroxypropan-2-yl)phenyl)-N-ethyl-6-methyl-7-oxo-6,7-dihydrothieno[2,3-c]pyridine-2-carboxamide], the IC50 (as a rule, the concentration that gives 50% inhibition) on BRD4-1 was 2050 nM; at BRD4-2, under 2 nM; in assay [1], 0.074 µM; in assay [2] (setting [3]), 0.089 µM.

On to `CCS(=O)(=O)Nc1ccc(Oc2c(C)cccc2C)c(-c2cn(C)c(=O)c3sc(-c4nnc(C)o4)cc23)c1` [Compound 4, N-(4-(2,6-dimethylphenoxy)-3-(6-methyl-2-(5-methyl-1,3,4-oxadiazol-2-yl)-7-oxo-6,7-dihydrothieno[2,3-c]pyridin-4-yl)phenyl)ethanesulfonamide], for which the IC50 amounted to 197 nM on BRD4-1; 6 nM at BRD4-2; 0.115 µM in assay [1]; 0.048 µM in assay [2] (setting [3]); 0.283 µM in assay [2] (setting [4]).

Consider `Cc1nnc(-c2cc3c(-c4cc(C(C)(C)O)ccc4Oc4c(C)cc(F)cc4C)cn(C)c(=O)c3s2)o1` [Compound 13, 4-(2-(4-fluoro-2,6-dimethylphenoxy)-5-(2-hydroxypropan-2-yl)phenyl)-6-methyl-2-(5-methyl-1,3,4-oxadiazol-2-yl)thieno[2,3-c]pyridin-7(6H)-one], for which the IC50 at BRD4-1 was 4940 nM; on BRD4-2 it was 9 nM; in assay [1], 0.54 µM; in assay [2] (setting [4]), 2.5 µM.

`Cn1cc(-c2cc(C(C)(C)O)ccc2Oc2ccc(F)cc2F)c2cc(C(=O)N3CCCC(F)(F)C3)sc2c1=O` [Compound 23, 4-(2-(2,4-difluorophenoxy)-5-(2-hydroxypropan-2-yl)phenyl)-2-(3,3-difluoropiperidine-1-carbonyl)-6-methylthieno[2,3-c]pyridin-7(6H)-one]: the IC50 was 1120 nM on BRD4-1, 18 nM at BRD4-2, 0.768 µM in assay [1] and 1.62 µM in assay [2] (setting [4]).

For `Cn1cc(-c2cc(C(C)(C)O)ccc2Oc2ccc(F)cc2F)c2cc(C(=O)NC3CC3)sc2c1=O` [Compound 145, N-cyclopropyl-4-(2-(2,4-difluorophenoxy)-5-(2-hydroxypropan-2-yl)phenyl)-6-methyl-7-oxo-6,7-dihydrothieno[2,3-c]pyridine-2-carboxamide], the IC50 came out at 601 nM at BRD4-1, 7 nM at BRD4-2, 0.245 µM in assay [1] and 0.691 µM in assay [2] (setting [4]).

Turning to `Cc1noc(-c2cc3c(-c4cc(C(C)(C)O)ccc4Oc4ccc(F)cc4F)cn(C)c(=O)c3s2)n1` [Compound 8, 4-(2-(2,4-difluorophenoxy)-5-(2-hydroxypropan-2-yl)phenyl)-6-methyl-2-(3-methyl-1,2,4-oxadiazol-5-yl)thieno[2,3-c]pyridin-7(6H)-one], the IC50 turned out to be 94 nM at BRD4-1; 74 nM on BRD4-2; 0.379 µM in assay [1]; 0.156 µM in assay [2] (setting [3]); 0.521 µM in assay [2] (setting [4]).

Turning to `CCNC(=O)c1cc2c(-c3cc(C(C)(C)O)ccc3Oc3ccc(Cl)cc3Cl)cn(C)c(=O)c2s1` [Compound 2, 4-(2-(2,4-dichlorophenoxy)-5-(2-hydroxypropan-2-yl)phenyl)-N-ethyl-6-methyl-7-oxo-6,7-dihydrothieno[2,3-c]pyridine-2-carboxamide], the results for the IC50 (at BRD4-2; in assay [1]; in assay [2] (setting [3])) were 1 nM, 0.111 µM and 0.061 µM, respectively.

On to `CCS(=O)(=O)Nc1ccc(Oc2c(C)cc(F)cc2C)c(-c2cn(C)c(=O)c3sc(-c4nc5ccccc5[nH]4)cc23)c1` [Compound 157, N-(3-(2-(1H-benzo[d]imidazol-2-yl)-6-methyl-7-oxo-6,7-dihydrothieno[2,3-c]pyridin-4-yl)-4-(4-fluoro-2,6-dimethylphenoxy)phenyl)ethane sulfonamide], for which the IC50 on BRD4-1 was over 10000 nM; at BRD4-2, 145 nM; in assay [1], 0.55 µM.

Consider `CCNC(=O)c1cc2c(-c3cc(NS(=O)(=O)CC)ccc3Oc3c(C)cccc3C)cn(C)c(=O)c2s1` [Compound 147, 4-(2-(2,6-dimethylphenoxy)-5-(ethylsulfonamido)phenyl)-N-ethyl-6-methyl-7-oxo-6,7-dihydrothieno[2,3-c]pyridine-2-carboxamide], for which the IC50 on BRD4-1 is 299 nM; at BRD4-2, 1.8 nM; in assay [1], 0.047 µM; in assay [2] (setting [4]), 1.77 µM.

Regarding `Cn1cc(-c2cc(C(C)(C)O)ccc2Oc2ccc(F)cc2F)c2cc(C(=O)NC3(C(F)(F)F)CC3)sc2c1=O` [Compound 14, 4-(2-(2,4-difluorophenoxy)-5-(2-hydroxypropan-2-yl)phenyl)-6-methyl-7-oxo-N-(1-(trifluoromethyl)cyclopropyl)-6,7-dihydrothieno[2,3-c]pyridine-2-carboxamide], the IC50 on BRD4-1 was 1170 nM; at BRD4-2, 47 nM; in assay [1], 0.768 µM.

In the case of `Cn1cc(-c2cc(C(C)(C)O)ccc2Oc2ccc(F)cc2F)c2cc(C(=O)N3CCCCC3)sc2c1=O` [Compound 6, 4-(2-(2,4-difluorophenoxy)-5-(2-hydroxypropan-2-yl)phenyl)-6-methyl-2-(piperidine-1-carbonyl)thieno[2,3-c]pyridin-7(6H)-one], the IC50 at BRD4-1 worked out at 1480 nM; on BRD4-2, 32 nM; in assay [1], 1.79 µM.

In the case of `CCS(=O)(=O)Nc1ccc(Oc2c(C)cc(F)cc2C)c(-c2cn(C)c(=O)c3sc(-c4nnc(C)o4)cc23)c1` [Compound 10, N-(4-(4-fluoro-2,6-dimethylphenoxy)-3-(6-methyl-2-(5-methyl-1,3,4-oxadiazol-2-yl)-7-oxo-6,7-dihydrothieno[2,3-c]pyridin-4-yl)phenyl)ethanesulfonamide], the IC50 on BRD4-1 came to 111 nM; on BRD4-2 it was 3.4 nM; in assay [1], 0.126 µM; in assay [2] (setting [4]), 0.78 µM.

Turning to `CCNC(=O)c1cc2c(=O)n(C)cc(-c3cc(C(C)(C)O)ccc3Oc3c(C)cc(F)cc3C)c2s1` [Compound 146, N-ethyl-7-(2-(4-fluoro-2,6-dimethylphenoxy)-5-(2-hydroxypropan-2-yl)phenyl)-5-methyl-4-oxo-4,5-dihydrothieno[3,2-c]pyridine-2-carboxamide], the IC50 at BRD4-1 was 2920 nM; at BRD4-2 it was 2 nM; in assay [1], 0.084 µM; in assay [2] (setting [4]), 0.729 µM.

`CCNC(=O)c1cc2c(-c3cc(C(C)(C)O)ccc3Oc3c(C)cc(F)cc3C)cn(C)c(=O)c2s1` [Compound 1, N-ethyl-4-(2-(4-fluoro-2,6-dimethylphenoxy)-5-(2-hydroxypropan-2-yl)phenyl)-6-methyl-7-oxo-6,7-dihydrothieno[2,3-c]pyridine-2-carboxamide]: the IC50 at BRD4-1 came to 10100 nM; at BRD4-2 it was 2 nM; in assay [1], 0.131 µM; in assay [2] (setting [3]) it was 0.266 µM; in assay [2] (setting [4]), 4.91 µM.
